Data published in patent publication US6723724B2, “Isoxazolylalkylpiperazine derivatives having selective biological activity at dopamine D3 or D4 receptor, and preparation thereof” (priority 2000, dated 2004).

Experiments:
dopamine D2 receptor = dopamine D2 receptor (Homo sapiens, UniProt P14416); test: Binding affinity to cloned human dopamine receptors (radioligand displacement), D2; conditions: for Affinity to Dopamine Receptors (% Inhibition) D2: 1 µM test compound
Description: (§1) Experimental Example: Test for the Binding Affinity to Dopamine Receptor
(§2) Binding affinities of the compounds for dopamine receptors were determined indirectly by their ability to displace radiolabeled ligand from cloned human dopamine receptors. Compounds were incubated in receptor suspension to compete with the radiolabeled ligand. The receptor-bound radiolabeled ligand was separated by filtering through Wallac glass fiber filtermat (GF/C) using Inotech cell harvester of 96-well format. The radioactivity bound to filter was counted by Micro-P counter (Wallac).
(§3) The aliquots of cloned human dopamine receptors stored at −70° C. were suspended in assay buffer and the content of receptor in each aliquot was determined by Bio-Rad DC protein assay kit to give an optimal protein (receptor) concentration obtained by preliminary receptor binding assay. Receptor suspension adjusted to optimal concentration was aliquoted in proper volume for assay and stored at −70° C. Binding assays of every compound were performed in duplicate and each different buffer solution was used for optimal assay with each subtype of dopamine receptors. Receptor binding assays were carried out in 96-well plates. Receptor suspension of 100 was incubated at 27° C. for 30-60 min in a final volume of 0.25 ml reaction mixture containing 50 of hot-ligand and 10 of test compound.
(§4) After incubation, the reaction mixture was washed with ice-cold 50 mM Tris-acetate buffer by rapid filtration using a Inotech cell harvester (Inotech, Switzerland) through Whatman GF/C glass fiber filter presoaked in the assay buffer. The filter was covered with MeltiLex, sealed in a sample bag followed by drying in the microwave, and counted by MicroBeta Plus (Wallac, Finland) at a counting efficiency of 30-40%.

dopamine D3 receptor = dopamine D3 receptor (Homo sapiens, UniProt P35462); test: Binding affinity to cloned human dopamine receptors (radioligand displacement), D3; conditions: for Affinity to Dopamine Receptors (% Inhibition) D3: 1 µM test compound
Description: as §1, §2, §3, §4

dopamine D4 receptor = biological target: T1, dopamine D4 receptor (Homo sapiens, UniProt P21917); test: Binding affinity to cloned human dopamine receptors (radioligand displacement), D4; conditions: for Affinity to Dopamine Receptors (% Inhibition) D4: 1 µM test compound
T1 sequence (P21917 1-419): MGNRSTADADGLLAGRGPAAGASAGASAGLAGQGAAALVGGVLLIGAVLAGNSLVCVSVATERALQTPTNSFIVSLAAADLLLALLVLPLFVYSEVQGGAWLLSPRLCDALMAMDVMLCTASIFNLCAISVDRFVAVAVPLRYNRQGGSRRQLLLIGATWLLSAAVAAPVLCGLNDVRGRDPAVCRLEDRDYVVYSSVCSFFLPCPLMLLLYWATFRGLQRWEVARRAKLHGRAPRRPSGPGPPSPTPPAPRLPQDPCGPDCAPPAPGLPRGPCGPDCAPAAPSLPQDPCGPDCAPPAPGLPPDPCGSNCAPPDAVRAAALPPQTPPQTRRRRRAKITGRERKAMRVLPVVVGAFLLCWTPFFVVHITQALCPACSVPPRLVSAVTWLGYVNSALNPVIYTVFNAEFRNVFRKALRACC
Description: as §1, §2, §3, §4

dopamine D1 receptor = dopamine D1 receptor (Homo sapiens, UniProt P21728); test: Binding affinity to cloned human dopamine receptors (radioligand displacement), D1; conditions: for Affinity to Dopamine Receptors (% Inhibition) D1: 1 µM test compound
Description: as §1, §2, §3, §4

Sequence of dopamine D3 receptor (P35462 whole entry): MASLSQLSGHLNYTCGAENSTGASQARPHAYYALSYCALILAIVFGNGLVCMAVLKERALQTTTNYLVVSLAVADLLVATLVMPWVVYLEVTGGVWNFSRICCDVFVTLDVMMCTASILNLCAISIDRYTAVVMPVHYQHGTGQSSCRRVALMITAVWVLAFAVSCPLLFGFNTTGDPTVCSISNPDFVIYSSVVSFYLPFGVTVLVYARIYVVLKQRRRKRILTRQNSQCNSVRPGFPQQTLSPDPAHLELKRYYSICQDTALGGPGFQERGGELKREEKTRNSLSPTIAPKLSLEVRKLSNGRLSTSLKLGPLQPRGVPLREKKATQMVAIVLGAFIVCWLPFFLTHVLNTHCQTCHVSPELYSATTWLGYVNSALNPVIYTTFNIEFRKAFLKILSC
Sequence of dopamine D2 receptor (P14416 whole entry): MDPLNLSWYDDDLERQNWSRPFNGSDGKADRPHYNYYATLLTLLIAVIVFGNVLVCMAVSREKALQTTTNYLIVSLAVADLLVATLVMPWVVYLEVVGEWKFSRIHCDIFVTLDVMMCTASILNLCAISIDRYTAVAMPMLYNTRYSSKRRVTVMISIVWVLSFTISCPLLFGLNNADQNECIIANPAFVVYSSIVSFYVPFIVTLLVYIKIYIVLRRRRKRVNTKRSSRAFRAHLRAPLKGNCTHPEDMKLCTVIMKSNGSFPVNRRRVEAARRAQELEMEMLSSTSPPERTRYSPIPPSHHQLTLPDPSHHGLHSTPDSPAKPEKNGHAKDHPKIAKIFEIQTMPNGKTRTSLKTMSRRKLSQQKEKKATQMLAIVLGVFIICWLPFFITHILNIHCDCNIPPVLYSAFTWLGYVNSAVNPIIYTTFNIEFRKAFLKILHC
Sequence of dopamine D1 receptor (P21728 whole entry): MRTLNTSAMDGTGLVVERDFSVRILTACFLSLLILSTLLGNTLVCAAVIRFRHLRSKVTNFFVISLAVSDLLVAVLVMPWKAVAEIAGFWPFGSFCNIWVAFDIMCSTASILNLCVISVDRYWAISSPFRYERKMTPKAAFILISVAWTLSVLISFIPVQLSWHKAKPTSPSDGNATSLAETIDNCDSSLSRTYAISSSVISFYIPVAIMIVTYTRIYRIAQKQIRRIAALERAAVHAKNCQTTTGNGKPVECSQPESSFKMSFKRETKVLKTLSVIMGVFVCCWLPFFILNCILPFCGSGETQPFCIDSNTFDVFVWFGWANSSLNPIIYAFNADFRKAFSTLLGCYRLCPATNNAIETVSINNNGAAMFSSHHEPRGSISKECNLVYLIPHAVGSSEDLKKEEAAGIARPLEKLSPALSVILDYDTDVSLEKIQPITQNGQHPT

SMILES: CCOc1ccccc1N1CCN(CCCc2cc(-c3ccc(F)cc3)no2)CC1 [Compound No. 20]
- Affinity to Dopamine Receptors (% Inhibition) D2 (dopamine D2 receptor): 47.9%
- Affinity to Dopamine Receptors (% Inhibition) D3 (dopamine D3 receptor): 89.4%
- Affinity to Dopamine Receptors (% Inhibition) D4 (dopamine D4 receptor): 86.2%

SMILES: COc1ccccc1N1CCN(CCCCc2cc(-c3ccc(F)cc3)no2)CC1 [Compound No. 37]
- Affinity to Dopamine Receptors (% Inhibition) D1 (dopamine D1 receptor): 52.2%
- Affinity to Dopamine Receptors (% Inhibition) D2 (dopamine D2 receptor): 57.3%
- Affinity to Dopamine Receptors (% Inhibition) D3 (dopamine D3 receptor): 112.5%
- Affinity to Dopamine Receptors (% Inhibition) D4 (dopamine D4 receptor): 91.3%

SMILES: COc1ccc(-c2cc(CCCCN3CCN(c4ccccc4OC)CC3)on2)cc1OC [Compound No. 39]
- IC50 (dopamine D1 receptor): 2880 nM
- Affinity to Dopamine Receptors (% Inhibition) D1 (dopamine D1 receptor): 23.9%
- IC50 (dopamine D2 receptor): 1900 nM
- Affinity to Dopamine Receptors (% Inhibition) D2 (dopamine D2 receptor): 23%
- IC50 (dopamine D3 receptor): 12 nM
- Affinity to Dopamine Receptors (% Inhibition) D3 (dopamine D3 receptor): 105.1%
- IC50 (dopamine D4 receptor): 395 nM
- Affinity to Dopamine Receptors (% Inhibition) D4 (dopamine D4 receptor): 80.1%

SMILES: COc1ccc(-c2cc(CCCN3CCN(c4ccccc4)CC3)on2)c(OC)c1 [Compound No. 32]
- IC50 (dopamine D1 receptor): 110 nM
- Affinity to Dopamine Receptors (% Inhibition) D1 (dopamine D1 receptor): 70%
- IC50 (dopamine D2 receptor): 9980 nM
- Affinity to Dopamine Receptors (% Inhibition) D2 (dopamine D2 receptor): 10.6%
- IC50 (dopamine D3 receptor): 38 nM
- Affinity to Dopamine Receptors (% Inhibition) D3 (dopamine D3 receptor): 100.1%
- IC50 (dopamine D4 receptor): 117 nM
- Affinity to Dopamine Receptors (% Inhibition) D4 (dopamine D4 receptor): 74.9%

SMILES: c1ccc(N2CCN(CCCCc3cc(-c4cccs4)no3)CC2)cc1 [Compound No. 33]
- IC50 (dopamine D1 receptor): 310 nM
- Affinity to Dopamine Receptors (% Inhibition) D1 (dopamine D1 receptor): 52.9%
- IC50 (dopamine D2 receptor): 18800 nM
- Affinity to Dopamine Receptors (% Inhibition) D2 (dopamine D2 receptor): 6.7%
- IC50 (dopamine D3 receptor): 35 nM
- Affinity to Dopamine Receptors (% Inhibition) D3 (dopamine D3 receptor): 104.4%
- IC50 (dopamine D4 receptor): 180 nM
- Affinity to Dopamine Receptors (% Inhibition) D4 (dopamine D4 receptor): 62.4%

SMILES: CCOc1ccccc1N1CCN(CCCCc2cc(-c3cccs3)no2)CC1 [Compound No. 53]
- IC50 (dopamine D2 receptor): 880 nM
- Affinity to Dopamine Receptors (% Inhibition) D2 (dopamine D2 receptor): 54.1%
- IC50 (dopamine D4 receptor): 19 nM
- Affinity to Dopamine Receptors (% Inhibition) D4 (dopamine D4 receptor): 93.4%

SMILES: CCOc1ccccc1N1CCN(CCCCc2cc(-c3ccccc3)no2)CC1 [Compound No. 54]
- IC50 (dopamine D2 receptor): 1550 nM
- Affinity to Dopamine Receptors (% Inhibition) D2 (dopamine D2 receptor): 29.9%
- IC50 (dopamine D3 receptor): 21 nM
- Affinity to Dopamine Receptors (% Inhibition) D3 (dopamine D3 receptor): 101.8%
- IC50 (dopamine D4 receptor): 52 nM
- Affinity to Dopamine Receptors (% Inhibition) D4 (dopamine D4 receptor): 77.6%

SMILES: Fc1ccccc1N1CCN(CCCCc2cc(/C=C/c3ccccc3)no2)CC1 [Compound No. 46]
- Affinity to Dopamine Receptors (% Inhibition) D1 (dopamine D1 receptor): 75.8%
- IC50 (dopamine D2 receptor): 2660 nM
- Affinity to Dopamine Receptors (% Inhibition) D2 (dopamine D2 receptor): 15.6%
- IC50 (dopamine D4 receptor): 89 nM
- Affinity to Dopamine Receptors (% Inhibition) D4 (dopamine D4 receptor): 45.1%

SMILES: C(=C\c1cc(CCCCN2CCN(C(c3ccccc3)c3ccccc3)CC2)on1)/c1ccccc1 [Compound No. 29]
- Affinity to Dopamine Receptors (% Inhibition) D1 (dopamine D1 receptor): 32.6%
- Affinity to Dopamine Receptors (% Inhibition) D2 (dopamine D2 receptor): 0.0%
- Affinity to Dopamine Receptors (% Inhibition) D3 (dopamine D3 receptor): 102.4%
- Affinity to Dopamine Receptors (% Inhibition) D4 (dopamine D4 receptor): 31.6%

SMILES: C(=C\c1cc(CCCCN2CCN(c3ccccc3)CC2)on1)/c1ccccc1 [Compound No. 36]
- Affinity to Dopamine Receptors (% Inhibition) D1 (dopamine D1 receptor): 75.2%
- Affinity to Dopamine Receptors (% Inhibition) D2 (dopamine D2 receptor): 22.2%
- Affinity to Dopamine Receptors (% Inhibition) D3 (dopamine D3 receptor): 107.9%
- Affinity to Dopamine Receptors (% Inhibition) D4 (dopamine D4 receptor): 69%
